Results: patent US8791123B2, “Substituted pyrazolo[1,5-a]pyrimidine compounds as Trk kinase inhibitors” (Array Biopharma, Inc., priority 2009, dated 2014)
Read-outs that look alike come from different tables or passages of the source.

Assays:
Assay type in all cases: biochemical
[1] = molecular target: TrkA (histidine-tagged recombinant human TrkA, cytoplasmic domain) (Homo sapiens (Human), UniProt P04629); test: TrkA ELISA Assay
In short: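 His-tagged human TrkA cytoplasmic domain phosphorylated poly(Glu,Ala,Tyr 6:3:1) coated at 0.025 mg/mL, with inhibitors present. Phosphotyrosine was detected with HRP-conjugated PY20 antibody (0.2 μg/mL) and TMB, read as absorbance at 450 nm after phosphoric acid stop.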

Human Jak2 kinase domain = Human Jak2 kinase domain (Homo sapiens (Human), UniProt O60674); test: Jak2 Inhibition Assay (Omnia kinase assay); details: 500 μM ATP
Sequence of Human Jak2 kinase domain (O60674 808-1132): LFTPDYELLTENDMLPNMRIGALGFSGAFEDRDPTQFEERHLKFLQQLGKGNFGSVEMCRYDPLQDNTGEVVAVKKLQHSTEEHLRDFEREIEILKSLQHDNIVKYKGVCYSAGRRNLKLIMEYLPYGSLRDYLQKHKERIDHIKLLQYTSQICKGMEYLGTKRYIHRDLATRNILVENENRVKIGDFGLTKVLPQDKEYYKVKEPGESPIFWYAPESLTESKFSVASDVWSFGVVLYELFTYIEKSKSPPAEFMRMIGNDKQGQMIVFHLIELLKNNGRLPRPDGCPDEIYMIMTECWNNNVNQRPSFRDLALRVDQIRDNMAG

[2] = molecular target: GST-tagged human Jak1 kinase domain (Homo sapiens (Human), UniProt P23458); test: Jak1 Inhibition Assay (Omnia kinase assay); details: Table 2; 500 μM ATP
Sequence of GST-tagged human Jak1 kinase domain (P23458 866-1154): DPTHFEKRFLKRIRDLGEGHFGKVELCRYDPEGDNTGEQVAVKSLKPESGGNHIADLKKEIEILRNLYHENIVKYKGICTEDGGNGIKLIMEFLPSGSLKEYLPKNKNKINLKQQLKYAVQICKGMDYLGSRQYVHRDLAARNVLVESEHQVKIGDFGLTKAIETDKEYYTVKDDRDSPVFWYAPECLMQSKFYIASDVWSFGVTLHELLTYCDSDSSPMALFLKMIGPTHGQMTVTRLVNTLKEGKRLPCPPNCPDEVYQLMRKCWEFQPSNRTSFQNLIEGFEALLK
Experimental: (§1) The assays described in Examples C, D, E and F for the determination of JAK1, JAK2, JAK3 and Tyk2 kinase activity, respectively, utilized the Omnia® Kinase fluorescence peptide substrate-based technology (Invitrogen). […] The reactions were therefore read at excitation 360 nm and emission was measured at 485 nm every 50 seconds for 45 minutes using a PerkinElmer EnVision Multilabel Plate Reader.
(§2) The final buffer conditions for each of the JAK1, JAK2, JAK3 and Tyk2 assays were as follows: 25 mM HEPES, pH 7.4, 10 mM MgCl2, 0.01% Triton X-100 and 1 mM DTT.
(§3) Compounds were prepared at 50× the final concentration in DMSO by conducting 3-fold serial dilutions from a 500-μM or 1000-μM intermediate dilution to give a 10-point dosing curve having a high dose of 10 or 20 μM. Two-μL aliquots of these were transferred to a fresh plate for a ten-fold intermediate dilution with assay buffer. Five-μL aliquots of the diluted compounds were then transferred to 20-μL of assay mixtures described in Examples C, D, E and F for a final concentration of DMSO of 2%. A standard or reference compound was typically included on each assay plate to validate that plate. For each plate, percent of control (POC) values were calculated for each well according to the following equation:
(§4) [formula] • where • Xmax=Average Uninhibited Controls • Xmin=Average Background IC50's were estimated from the POC's using a standard 4-parameter logistic model:
(§5) [formula] • where • A=Minimum Y (Bottom Asymptote) • B=Maximum Y (Top Asymptote) • C=EC50 • D=Slope Factor • X=Compound Concentration (nM) • Y=POC
(§6) The IC50 is defined as the concentration of inhibitor at which the POC equals 50 for the fitted curve.
Compounds of Formula I were screened for their ability to inhibit Jak1 using the general enzyme inhibition assay method, in which the assay mixture contained 500 μM ATP, 8 μM Omnia® Y12 peptide (Catalog # IVGN KPZ3121C; Invitrogen Corporation, Carlsbad, Calif.) and 5 nM Jak1 in a total volume of 20 μL. […] (catalog # IVGN PV4774).

[3] = molecular target: GST-tagged human Jak3 kinase domain (Homo sapiens (Human), UniProt P52333); test: Jak3 Inhibition Assay (Omnia kinase assay); details: Table 2; 500 μM ATP
Sequence of GST-tagged human Jak3 kinase domain (P52333 781-1124): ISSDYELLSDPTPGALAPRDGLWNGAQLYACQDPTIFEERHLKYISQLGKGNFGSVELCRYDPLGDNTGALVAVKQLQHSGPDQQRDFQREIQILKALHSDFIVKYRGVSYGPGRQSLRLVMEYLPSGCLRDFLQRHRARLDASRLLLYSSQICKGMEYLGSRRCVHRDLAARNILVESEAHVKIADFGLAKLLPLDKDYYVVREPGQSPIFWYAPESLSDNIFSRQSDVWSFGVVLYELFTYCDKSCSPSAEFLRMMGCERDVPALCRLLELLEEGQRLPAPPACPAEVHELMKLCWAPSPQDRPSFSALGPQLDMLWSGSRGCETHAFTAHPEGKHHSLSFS
Experimental: as §1, §2, §3, §4, §5, §6
Compounds of Formula I were screened for their ability to inhibit Jak3 using the general enzyme inhibition assay method, in which the assay mixture contained 500 μM ATP, 10 μM Omnia® Y7 peptide (Catalog # IVGN KNZ3071C, Invitrogen Corporation, Carlsbad, Calif.) and 1.5 nM Jak3 in a total volume of 20 μL. GST-tagged human Jak3 kinase domain comprising amino acids 781-1124 was purchased from Invitrogen Corporation, Carlsbad, Calif. (catalog # IVGN PV3855).

Human Tyk2 kinase domain = Human Tyk2 kinase domain (Homo sapiens (Human), UniProt P29597); test: Tyk2 Inhibition Assay (Omnia kinase assay); details: Table 2; 500 μM ATP
Sequence of Human Tyk2 kinase domain (P29597 886-1187): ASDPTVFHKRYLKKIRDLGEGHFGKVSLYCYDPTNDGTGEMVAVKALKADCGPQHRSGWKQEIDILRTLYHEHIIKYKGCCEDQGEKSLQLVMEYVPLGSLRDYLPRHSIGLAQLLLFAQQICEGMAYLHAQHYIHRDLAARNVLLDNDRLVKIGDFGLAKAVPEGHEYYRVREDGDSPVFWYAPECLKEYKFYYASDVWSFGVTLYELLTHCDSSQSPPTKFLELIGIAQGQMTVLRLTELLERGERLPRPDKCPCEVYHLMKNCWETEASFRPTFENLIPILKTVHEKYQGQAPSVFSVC
Experimental: as §1, §2, §3, §4, §5, §6
Compounds of Formula I were screened for their ability to inhibit Tyk2 using the general enzyme inhibition assay method, in which the assay mixture contained 500 μM ATP, 8 μM Omnia® Y12 peptide (Catalog # IVGN KPZ3121C; Invitrogen Corporation, Carlsbad, Calif.) and 1 nM Tyk2 in a total volume of 20 μL. Human Tyk2 kinase domain, comprising amino acids 886 to 1187 with 10 additional histidine residues (histidine tag) on the carboxy terminus, was expressed and purified from bacculovirus in-house at Array BioPharma Inc. (Boulder, Colo.). The histidine tag was cleaved after purification using standard conditions.

[4] = Table 1, ELISA, 500 μM ATP, read-out: TrkA Enzyme IC50
[5] = Table 1, >1000 nM when >50% inhibition not observed at 1000 nM, read-out: Jak2 Enzyme IC50

Sequence of TrkA (histidine-tagged recombinant human TrkA, cytoplasmic domain) (P04629 440-796): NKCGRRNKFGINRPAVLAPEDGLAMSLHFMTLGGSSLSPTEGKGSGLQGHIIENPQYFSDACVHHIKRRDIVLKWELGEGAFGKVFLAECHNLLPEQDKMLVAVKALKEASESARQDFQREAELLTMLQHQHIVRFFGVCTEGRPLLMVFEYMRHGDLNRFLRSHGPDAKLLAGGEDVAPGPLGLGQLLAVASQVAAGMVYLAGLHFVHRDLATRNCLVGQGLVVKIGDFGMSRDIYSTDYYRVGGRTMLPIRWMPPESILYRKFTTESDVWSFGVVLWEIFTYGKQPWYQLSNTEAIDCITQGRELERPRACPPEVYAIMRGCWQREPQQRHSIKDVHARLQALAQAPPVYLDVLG

Row | IC50 [1, 4] | IC50 ([1]; Table 2, read-out: TrkA IC50) | IC50 (Human Jak2 kinase domain; [5]) | IC50 (Human Jak2 kinase domain; Table 2, read-out: Jak2 IC50) | IC50 [2] | IC50 [3] | IC50 (Human Tyk2 kinase domain) | Structure (SMILES)
1 | 6.4 nM | 6.3 nM | > 1000 nM | > 1000 nM | > 1000 nM | > 1000 nM | > 1000 nM | C[C@@H](NC(=O)c1cnn2ccc(N3CCC[C@@H]3c3cncc(F)c3)nc12)C1CC1 [Example 123, N-((R)-1-cyclopropylethyl)-5-((R)-2-(5-fluoropyridin-3-yl)pyrrolidin-1-yl)pyrazolo[1,5-a]pyrimidine-3-carboxamide]
2 | 2.9 nM | 2.9 nM | 759 nM | 759 nM | > 1000 nM | > 1000 nM | > 1000 nM | C[C@H](NC(=O)c1cnn2ccc(N3CCC[C@@H]3c3cncc(F)c3)nc12)C1CC1 [Example 124, N-((S)-1-cyclopropylethyl)-5-((R)-2-(5-fluoropyridin-3-yl)pyrrolidin-1-yl)pyrazolo[1,5-a]pyrimidine-3-carboxamide]
3 | 2.4 nM | 2.4 nM | > 1000 nM | > 1000 nM | > 1000 nM | > 1000 nM | > 1000 nM | Cc1ncc(F)cc1[C@H]1CCCN1c1ccn2ncc(C(=O)NC3(C)CC3)c2n1 [Example 190, (R)-5-(2-(5-fluoro-2-methylpyridin-3-yl)pyrrolidin-1-yl)-N-(1-methylcyclopropyl)pyrazolo[1,5-a]pyrimidine-3-carboxamide]
